Reference: patent US6656911B2, “Serine protease inhibitors” (Cortech, Inc., priority 1994, dated 2003)
pKi: −log10 of the molar value.

target: T1, human neutrophil elastase (HNE) (Homo sapiens, UniProt P08246); assay: HNE Ki of CE compounds, tested as described in WO 96/16080; type: biochemical; settings: read-out: HNE Ki
T1 sequence (P08246 30-267): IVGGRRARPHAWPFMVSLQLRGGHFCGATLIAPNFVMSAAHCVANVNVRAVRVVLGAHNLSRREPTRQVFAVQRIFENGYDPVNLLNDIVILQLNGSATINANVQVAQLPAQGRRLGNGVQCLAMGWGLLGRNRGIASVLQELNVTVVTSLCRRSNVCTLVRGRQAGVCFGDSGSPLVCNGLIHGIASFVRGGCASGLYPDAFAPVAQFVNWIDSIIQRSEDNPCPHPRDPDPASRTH

Row | Compound | pKi
1 | Cc1cccc(Cc2nnc(C(=O)[C@@H](NC(=O)CN3C(=O)CN(Cc4ccccc4)C(=O)[C@@H]3Cc3ccccc3)C(C)C)o2)c1 [CE2128, 4-[1-Benzyl-3-(S)-benzylpiperazine-2,5,-dione]-N-[1-(2-(5-(3-methylbenzyl)-1,3,4-oxadiazolyl]carbonyl)-2-(S)-methylpropyl]acetamide] | 7.19
2 | Cc1cccc(Cc2nnc(C(=O)[C@@H](NC(=O)CN(C(=O)c3ccc[nH]3)C3CCc4ccccc43)C(C)C)o2)c1 (stereo partly drawn) [CE2195, (Pyrrole-2-carbonyl)-N-[1-(R,S)-indanyl]glycyl-N-[1-(2-[5-(3-methylbenzyl)-1,3,4-oxadiazolyl]carbonyl)-2-(S)-methylpropyl]amide] | 7.97
3 | CC(C)[C@H](NC(=O)[C@@H]1CCCN1C(=O)[C@@H](NC(=O)OCc1ccccc1)C(C)C)C(=O)c1noc(C(C)(C)c2cccc(C(F)(F)F)c2)n1 [CE2073, (Benzyloxycarbonyl)-L-valyl-N-[1-(3-[5-(α,α-dimethyl-3-trifluoromethylbenzyl)-1,2,4-oxadiazolyl]carbonyl)-2-(S)-methylpropyl]-L-prolinamide] | 9.63
4 | CC(=O)N1CC(=O)N(CC(=O)N[C@H](C(=O)c2nnc(Cc3cccc(C)c3)o2)C(C)C)C(=Cc2ccc(F)cc2)C1=O [CE2105, 1-Acetyl-3-(4-fluorobenzylidene) piperazine-2,5-dione-N-[1-(2-[5-(3-methylbenzyl)-1,3,4-oxadiazolyl]carbonyl)-2-(S)-methylpropyl]acetamide] | 9.14
5 | Cc1cccc(Cc2nnc(C(=O)[C@@H](NC(=O)Cn3c(=O)[nH]n(Cc4ccccc4)c3=O)C(C)C)o2)c1 [CE2176, 1-Benzyl-1,2,4-triazolidine-3,5-dione-N-[1-(2-[5-(3-methylbenzyl)-1,3,4-oxadiazolyl]carbonyl)-2-(S)-methylpropyl]acetamide] | 7.28
6 | CC(C)[C@H](NC(=O)CN1C(=O)N[C@@H](Cc2ccccc2)C1=O)C(=O)c1noc(Cc2cccc(C(F)(F)F)c2)n1 [CE2155, 5-(S)-Benzyl-2,4-imidazolidinedione-N-[1-(3-[5-(3-trifluoromethylbenzyl)-1,2,4-oxadiazolyl]carbonyl)-2-(S)-methylpropyl]acetamide] | 7.24
7 | Cc1cccc(Cc2nnc(C(=O)[C@@H](NC(=O)CN3CC(=O)N(C(=O)c4ccccc4)CC3=O)C(C)C)o2)c1 [CE2138, (1-Benzoyl-3,6-piperazinedione)-N-[1-(2-[5-(3-S methylbenzyl)-1,3,4-oxadiazolyl]carbonyl)-2-(S)-methylpropyl]acetamide] | 6.53
8 | Cc1cccc(Cc2nnc(C(=O)[C@@H](NC(=O)CN3CC(=O)N(c4ccccc4)CC3=O)C(C)C)o2)c1 [CE2147, (1-Phenyl-3,6-piperazinedione)-N-[1-(2-[5-(3-methylbenzyl)-1,3,4-oxadiazolyl]carbonyl)-2-(S)-methylpropyl]acetamide] | 5.80
9 | Cc1cccc(Cc2nnc(C(=O)C(NC(=O)CN3C(=O)CCSC3c3ccccc3)C(C)C)o2)c1 [CE2118, 2-[2-(R,S)-Phenyl-4-oxometathiazan-3-yl]-N-[1-(2-[5-(3-methylbenzyl)-1,3,4-oxadiazolyl]carbonyl)-2-(S)-methylpropyl]acetamide] | 7.88
10 | Cc1cccc(Cc2nnc(C(=O)C(NC(=O)CN3C(=O)CNCC3Cc3ccccc3)C(C)C)o2)c1 [CE2196, (6-(R)-Benzylpiperazin-2-one)-N-[1-(2-[5-(3-methylbenzyl)-1,3,4-oxadiazolyl]carbonyl)-2-(R,S)-methylpropyl]acetamide] | 7.02
11 | CC(C)[C@H](NC(=O)Cn1c(-c2ccc(F)cc2)ccc(N)c1=O)C(=O)c1nnc(Cc2ccc3c(c2)OCO3)o1 [CE2261] | 9.44
12 | CC(C)[C@H](NC(=O)CN1C(=O)CN(Cc2ccccc2)C1=O)C(=O)c1noc(Cc2cccc(C(F)(F)F)c2)n1 [CE2189, 1-Benzyl-2,4-imidazolidinedione-N-[1-(3-[5-(3-trifluoromethylbenzyl)-1,2,4-oxadiazolyl]carbonyl)-2-(S)-methylpropyl]acetamide] | 7.00
13 | Cc1cccc(Cc2nnc(C(=O)[C@@H](NC(=O)OCc3ccccc3)C(C)C)o2)c1 [CE2170] | 6.53
14 | CC(C)C(NC(=O)CN1C(=O)C(c2ccccc2)N(C)C1=O)C(=O)c1noc(Cc2cccc(C(F)(F)F)c2)n1 [CE2182, 5-(R,S)-Phenyl-1-methyl-2,4-imidazolidinedione-N-[1-(3-[5-(3-trifluoromethylbenzyl)-1,2,4-oxadiazolyl]carbonyl)-2-(S)-methylpropyl]acetamide] | 7.27
15 | 2-Oxo-5-methyl-1,4-(1-thiophenodiazepine)-N-[1-(2-[5-(3-methylbenzyl)-1,3,4-oxadiazolyl]carbonyl)-2-(S)-methylpropyl]acetamide [CE2244] | 7.11
16 | Cc1cccc(Cc2nnc(C(=O)[C@@H](NC(=O)CN3C(=O)CSC3Cc3ccccc3)C(C)C)o2)c1 (some centres unmarked) [CE2122] | 7.20
17 | CC(C)[C@H](NC(=O)Cn1c(-c2ccc(F)cc2)ncc(NC(=O)OCc2ccccc2)c1=O)C(=O)c1noc(Cc2cccc(C(F)(F)F)c2)n1 [CE2089, 2-[5-[(Benzyloxycarbonyl]amino]-6-oxo-2-(4-fluorophenyl)-1,6-dihydro-1-pyrimidinyl]-N-[1-(3-[5-(3-trifluoromethylbenzyl)-1,2,4-oxadiazolyl]carbonyl)7(S)-2-methylpropyl]acetamide] | 8.82
18 | CC(C)[C@H](NC(=O)CN1CCCC(NC(=O)OCc2ccccc2)C1=O)C(=O)c1noc(Cc2cccc(C(F)(F)F)c2)n1 (stereo partly drawn) [CE2160, 3-(R,S)-[(Benzyloxycarbonyl)amino-δ-lactam]-N-[1-(3-[5-(3-trifluoromethylbenzyl)-1,2,4-oxadiazolyl]carbonyl)-2-(S)-methylpropyl]acetamide] | 6.59
19 | Cc1cccc(Cc2nnc(C(=O)[C@@H](NC(=O)[C@@H]3Cc4ccccc4N3C(=O)[C@@H](NC(=O)OCc3ccccc3)C(C)C)C(C)C)o2)c1 [CE2145, (Benzyloxycarbonyl)-L-valyl-2-L-(2,3-dihydro-1H-indole)-N-[1-(2-[5-(3-methylbenzyl)-1,3,4-oxadiazolyl]carbonyl)-2-(S)-methylpropyl]amide] | 10.42
20 | 3-(S)-Amino-ε-lactam-N-[1-(2-[5-(3-methylbenzyl)-1,3,4-oxadiazolyl]carbonyl)-2-(S)-methylpropyl]acetamide trifluoroacetic acid salt [CE2080] | 7.21
21 | CC(C)[C@H](NC(=O)[C@@H]1CCCN1C(=O)[C@@H](NC(=O)OCc1ccccc1)C(C)C)C(=O)c1noc(Cc2cccc3ccccc23)n1 [CE2077, (Benzyloxycarbonyl)-L-valyl-N-[1-(3-[5-(1-napthylmethylene)-1,2,4-oxadiazolyl]carbonyl)-2-(S)-methylpropyl]-L-prolinamide] | 9.82
22 | CC(C)[C@H](NC(=O)CN(Cc1ccccc1)C(=O)c1ccc[nH]1)C(=O)c1noc(Cc2cccc(C(F)(F)F)c2)n1 [CE2097, (Pyrrole-2-carbonyl)-N-(benzyl)glycyl-N-[1-(3-[5-(3-trifluoromethylbenzyl)1-1,2,4-oxadiazolyl]carbonyl)-(S)-methylpropyl]amide] | 6.94
23 | CC(C)[C@H](NC(=O)[C@@H]1CCCN1C(=O)[C@@H](NC(=O)OCc1ccccc1)C(C)C)C(=O)c1noc(C(c2ccccc2)c2ccccc2)n1 [CE2057] | 9.43
